# Data from PubChem BioAssay AID2060892 (Molecular Pharmacology Branch, DTP, NCI, 2025).
# Tested on: HOP-62 complex spheroids with HUVEC/MSC, viability
# Assay: Anticancer human tumor HOP-62 cell line growth inhibition [RAS];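 further: spheroids exposed to agents for seven days before readout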;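 on viability, T/C: 100% = DMSO vehicle control viability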
# Conditions: for viability, T/C: stronger effect = lower value
# Method in brief: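 Tumour cells grown as complex spheroids with HUVEC endothelial cells and mesenchymal stem cells, treated with RAS pathway inhibitor combinations. Each agent spans half-log steps from near clinical Cmax, or 10 microM where Cmax is unknown.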
structure (smiles),measurement,setting,value
CCc1c2c(nc3ccc(O)cc13)-c1cc3c(c(=O)n1C2)COC(=O)[C@]3(O)CC + CCn1c(-c2cccnc2C(C)OC)c2c3cc(ccc31)N1CCOC(CC(NC(=O)C(C(C)C)N(C)C(=O)C3(F)CCN(C(=O)C#CC(C)(C)N(C)C)CC3)C(=O)N3CCCC(N3)C(=O)OCC(C)(C)C2)C1,IC50,"curve of first compound, second compound 0.000949 µM",< 0.949 nM
same,IC50,"curve of first compound, second compound 0.003 µM",< 0.949 nM
same,IC50,"curve of first compound, second compound 0.00949 µM",< 0.949 nM
same,IC50,"curve of first compound, second compound 0.03 µM",< 0.949 nM
same,IC50,"curve of first compound, second compound 0.0949 µM",< 0.949 nM
same,IC50,"curve of first compound, second compound 0.3 µM",< 0.949 nM
same,"viability, T/C","second compound 0.000949 µM, first compound 0.000949 µM",45%
same,"viability, T/C","second compound 0.000949 µM, first compound 0.003 µM",15.7%
same,"viability, T/C","second compound 0.000949 µM, first compound 0.00949 µM",6.01%
same,"viability, T/C","second compound 0.000949 µM, first compound 0.03 µM",6.3%
same,"viability, T/C","second compound 0.000949 µM, first compound 0.0949 µM",4.47%
same,"viability, T/C","second compound 0.000949 µM, first compound 0.3 µM",15.6%
same,"viability, T/C","second compound 0.003 µM, first compound 0.000949 µM",45.6%
same,"viability, T/C","second compound 0.003 µM, first compound 0.003 µM",14.3%
same,"viability, T/C","second compound 0.003 µM, first compound 0.00949 µM",7.48%
same,"viability, T/C","second compound 0.003 µM, first compound 0.03 µM",7.59%
same,"viability, T/C","second compound 0.003 µM, first compound 0.0949 µM",5.27%
same,"viability, T/C","second compound 0.003 µM, first compound 0.3 µM",2.57%
same,"viability, T/C","second compound 0.00949 µM, first compound 0.000949 µM",41.5%
same,"viability, T/C","second compound 0.00949 µM, first compound 0.003 µM",13.7%
same,"viability, T/C","second compound 0.00949 µM, first compound 0.00949 µM",8.71%
same,"viability, T/C","second compound 0.00949 µM, first compound 0.03 µM",5.6%
same,"viability, T/C","second compound 0.00949 µM, first compound 0.0949 µM",3.2%
same,"viability, T/C","second compound 0.00949 µM, first compound 0.3 µM",2.48%
same,"viability, T/C","second compound 0.03 µM, first compound 0.000949 µM",41%
same,"viability, T/C","second compound 0.03 µM, first compound 0.003 µM",14.1%
same,"viability, T/C","second compound 0.03 µM, first compound 0.00949 µM",7.78%
same,"viability, T/C","second compound 0.03 µM, first compound 0.03 µM",6.23%
same,"viability, T/C","second compound 0.03 µM, first compound 0.0949 µM",2.8%
same,"viability, T/C","second compound 0.03 µM, first compound 0.3 µM",3.13%
same,"viability, T/C","second compound 0.0949 µM, first compound 0.000949 µM",36.4%
same,"viability, T/C","second compound 0.0949 µM, first compound 0.003 µM",14.8%
same,"viability, T/C","second compound 0.0949 µM, first compound 0.00949 µM",9.82%
same,"viability, T/C","second compound 0.0949 µM, first compound 0.03 µM",6.01%
same,"viability, T/C","second compound 0.0949 µM, first compound 0.0949 µM",2.96%
same,"viability, T/C","second compound 0.0949 µM, first compound 0.3 µM",2.45%
same,"viability, T/C","second compound 0.3 µM, first compound 0.000949 µM",28.9%
same,"viability, T/C","second compound 0.3 µM, first compound 0.003 µM",13.9%
same,"viability, T/C","second compound 0.3 µM, first compound 0.00949 µM",11%
same,"viability, T/C","second compound 0.3 µM, first compound 0.03 µM",4.25%
same,"viability, T/C","second compound 0.3 µM, first compound 0.0949 µM",3.87%
same,"viability, T/C","second compound 0.3 µM, first compound 0.3 µM",2.14%
CCN1CCN(Cc2ccc(Nc3ncc(F)c(-c4cc(F)c5nc(C)n(C(C)C)c5c4)n3)nc2)CC1,"viability, T/C",compound 0.00316 µM,103% [middle of 4 runs]
same,"viability, T/C",compound 0.01 µM,104% [middle of 4 runs]
same,"viability, T/C",compound 0.0316 µM,103% [middle of 4 runs]
same,IC50,curve of compound,> 1000 nM
Nc1ccn(C2OC(CO)C(O)C2(F)F)c(=O)n1 (stereo not drawn) + C=CC(=O)N1CCN(c2nc(OCC3CCCN3C)nc3c(F)c(-c4nc(N)cc(C)c4C(F)(F)F)c(Cl)cc23)C(C)C1,IC50,"curve of first compound, second compound 0.00316 µM",4.79 nM
same,IC50,"curve of first compound, second compound 0.01 µM",4 nM
same,IC50,"curve of first compound, second compound 0.0316 µM",3.8 nM
same,IC50,"curve of first compound, second compound 0.1 µM",3.57 nM
same,IC50,"curve of first compound, second compound 0.316 µM",3.88 nM
same,IC50,"curve of first compound, second compound 1 µM",3.32 nM
same,"viability, T/C","second compound 0.00316 µM, first compound 0.00316 µM",71.5%
same,"viability, T/C","second compound 0.00316 µM, first compound 0.01 µM",11.7%
same,"viability, T/C","second compound 0.00316 µM, first compound 0.0316 µM",4.51%
same,"viability, T/C","second compound 0.00316 µM, first compound 0.1 µM",3.58%
same,"viability, T/C","second compound 0.00316 µM, first compound 0.316 µM",3.88%
same,"viability, T/C","second compound 0.00316 µM, first compound 1 µM",4.22%
same,"viability, T/C","second compound 0.01 µM, first compound 0.00316 µM",61%
same,"viability, T/C","second compound 0.01 µM, first compound 0.01 µM",7.13%
same,"viability, T/C","second compound 0.01 µM, first compound 0.0316 µM",4.46%
same,"viability, T/C","second compound 0.01 µM, first compound 0.1 µM",3.64%
same,"viability, T/C","second compound 0.01 µM, first compound 0.316 µM",3.98%
same,"viability, T/C","second compound 0.01 µM, first compound 1 µM",4.49%
same,"viability, T/C","second compound 0.0316 µM, first compound 0.00316 µM",57.3%
same,"viability, T/C","second compound 0.0316 µM, first compound 0.01 µM",11.7%
same,"viability, T/C","second compound 0.0316 µM, first compound 0.0316 µM",4.71%
same,"viability, T/C","second compound 0.0316 µM, first compound 0.1 µM",4.6%
same,"viability, T/C","second compound 0.0316 µM, first compound 0.316 µM",4.09%
same,"viability, T/C","second compound 0.0316 µM, first compound 1 µM",3.59%
same,"viability, T/C","second compound 0.1 µM, first compound 0.00316 µM",54.7%
same,"viability, T/C","second compound 0.1 µM, first compound 0.01 µM",10.5%
same,"viability, T/C","second compound 0.1 µM, first compound 0.0316 µM",3.96%
same,"viability, T/C","second compound 0.1 µM, first compound 0.1 µM",3.63%
same,"viability, T/C","second compound 0.1 µM, first compound 0.316 µM",4.57%
same,"viability, T/C","second compound 0.1 µM, first compound 1 µM",3.1%
same,"viability, T/C","second compound 0.316 µM, first compound 0.00316 µM",58.8%
same,"viability, T/C","second compound 0.316 µM, first compound 0.01 µM",9.95%
same,"viability, T/C","second compound 0.316 µM, first compound 0.0316 µM",5.61%
same,"viability, T/C","second compound 0.316 µM, first compound 0.1 µM",4.79%
same,"viability, T/C","second compound 0.316 µM, first compound 0.316 µM",5.44%
same,"viability, T/C","second compound 0.316 µM, first compound 1 µM",3.53%
same,"viability, T/C","second compound 1 µM, first compound 0.00316 µM",51.9%
same,"viability, T/C","second compound 1 µM, first compound 0.01 µM",6.83%
same,"viability, T/C","second compound 1 µM, first compound 0.0316 µM",4.34%
same,"viability, T/C","second compound 1 µM, first compound 0.1 µM",3.74%
same,"viability, T/C","second compound 1 µM, first compound 0.316 µM",4.68%
same,"viability, T/C","second compound 1 µM, first compound 1 µM",3.28%
